Data from patent publication US10131652B2, “Pyrimidinyloxy benzene derivatives as herbicides” (E. I. DU PONT DE NEMOURS AND COMPANY, priority 2014, dated 2018).

Tests used:
Experiment in all cases: Test D pre-/postemergence plant response
Assay type in all cases: in vivo
[1] = system: oilseed rape (Brassica napus)
Procedure, shortened: (§1)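 Seeds sown in loam–sand blend got preemergence sprays of test chemicals in a non-phytotoxic solvent with surfactant; postemergence sprays went on plants at 1- to 4-leaf stage (2 to 18 cm) in peat/vermiculite medium. After 13 to 15 days in greenhouse, visual injury versus controls scored 0 (no effect) to 100 (complete control).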

[2] = system: winter wheat (Triticum aestivum)
Procedure, shortened: as §1

[3] = system: velvetleaf (Abutilon theophrasti)
Procedure, shortened: as §1

[4] = system: yellow nutsedge (Cyperus esculentus)
Procedure, shortened: as §1

[5] = system: morningglory (Ipomoea coccinea)
Procedure, shortened: as §1

[6] = system: Italian ryegrass (Lolium multiflorum)
Procedure, shortened: as §1

[7] = system: blackgrass (Alopecurus myosuroides)
Procedure, shortened: as §1

corn (Zea mays) = system: corn (Zea mays)
Procedure, shortened: as §1

[8] = system: pigweed (Amaranthus retroflexus)
Procedure, shortened: as §1

[9] = system: johnsongrass (Sorghum halepense)
Procedure, shortened: as §1

[10] = system: lambsquarters (Chenopodium album)
Procedure, shortened: as §1

[11] = system: galium (catchweed bedstraw, Galium aparine)
Procedure, shortened: as §1

[12] = system: waterhemp (common waterhemp, Amaranthus rudis)
Procedure, shortened: as §1

soybean (Glycine max) = system: soybean (Glycine max)
Procedure, shortened: as §1

[13] = system: ragweed (common ragweed, Ambrosia elatior)
Procedure, shortened: as §1

[14] = system: large (Lg) crabgrass (Digitaria sanguinalis)
Procedure, shortened: as §1

[15] = system: barnyardgrass (Echinochloa crus-galli)
Procedure, shortened: as §1

[16] = system: giant foxtail (Setaria faberii)
Procedure, shortened: as §1

[17] = Postemergence, 31 g ai/ha, scale 0 to 100 (0 no effect, 100 complete control)
[18] = Postemergence, 62 g ai/ha, scale 0 to 100, 0 no effect, 100 complete control
[19] = Postemergence, 125 g ai/ha, scale 0 to 100, 0 no effect, 100 complete control
[20] = Postemergence, 16 g ai/ha, scale 0 to 100 (0 no effect, 100 complete control)
[21] = Preemergence, 16 g ai/ha, scale 0 to 100 (0 no effect, 100 complete control)
[22] = Preemergence, 31 g ai/ha, scale 0 to 100 (0 no effect, 100 complete control)
[23] = Preemergence, 62 g ai/ha, scale 0 to 100 (0 no effect, 100 complete control)

Fc1cccc(Oc2ncc(Cl)cn2)c1-c1cc(C2CC2)on1 [Compound 130]
Oilseed Rape plant response rating [1, 17]: 80
Plant response rating, Oilseed Rape [1, 18]: 75
Plant response rating, Oilseed Rape [1, 19]: 95
Wheat plant response rating [2, 17]: 5
Plant response rating, Wheat [2, 18]: 30
Plant response rating, Wheat [2, 19]: 35
Velvetleaf plant response rating [3, 17]: 80
Plant response rating, Velvetleaf [3, 18]: 75
Plant response rating, Velvetleaf [3, 19]: 100
Nutsedge, Yellow plant response rating [4, 17]: 5
Plant response rating, Nutsedge, Yellow [4, 18]: 20
Plant response rating, Nutsedge, Yellow [4, 19]: 25
Morningglory plant response rating [5, 17]: 80
Plant response rating, Morningglory [5, 18]: 85
Plant response rating, Morningglory [5, 19]: 85
Ryegrass, Italian plant response rating [6, 17]: 5
Plant response rating, Ryegrass, Italian [6, 18]: 10
Plant response rating, Ryegrass, Italian [6, 19]: 15
Blackgrass plant response rating [7, 20]: 0
Blackgrass plant response rating [7, 17]: 5
Plant response rating, Blackgrass [7, 18]: 20
Plant response rating, Blackgrass [7, 19]: 30
Corn plant response rating (corn (Zea mays); [20]): 10
Corn plant response rating (corn (Zea mays); [17]): 25
Plant response rating, Corn (corn (Zea mays); [18]): 10
Plant response rating, Corn (corn (Zea mays); [19]): 10
Pigweed plant response rating [8, 17]: 95
Plant response rating, Pigweed [8, 18]: 98
Plant response rating, Pigweed [8, 19]: 98
Johnsongrass plant response rating [9, 17]: 5
Plant response rating, Johnsongrass [9, 18]: 5
Plant response rating, Johnsongrass [9, 19]: 10
Lambsquarters plant response rating [10, 17]: 100
Plant response rating, Lambsquarters [10, 18]: 100
Plant response rating, Lambsquarters [10, 19]: 100
Galium plant response rating [11, 17]: 90
Plant response rating, Galium [11, 18]: 95
Plant response rating, Galium [11, 19]: 100
Waterhemp plant response rating [12, 17]: 85
Plant response rating, Waterhemp [12, 18]: 98
Plant response rating, Waterhemp [12, 19]: 98
Soybean plant response rating (soybean (Glycine max); [17]): 55
Plant response rating, Soybean (soybean (Glycine max); [18]): 98
Plant response rating, Soybean (soybean (Glycine max); [19]): 95
Ragweed plant response rating [13, 17]: 60
Plant response rating, Ragweed [13, 18]: 75
Plant response rating, Ragweed [13, 19]: 40
Crabgrass, Large plant response rating [14, 20]: 10
Crabgrass, Large plant response rating [14, 17]: 20
Plant response rating, Crabgrass, Large [14, 18]: 20
Plant response rating, Crabgrass, Large [14, 19]: 25
Barnyardgrass plant response rating [15, 20]: 10
Barnyardgrass plant response rating [15, 17]: 10
Plant response rating, Barnyardgrass [15, 18]: 10
Plant response rating, Barnyardgrass [15, 19]: 25
Foxtail, Giant plant response rating [16, 20]: 5
Foxtail, Giant plant response rating [16, 17]: 5
Plant response rating, Foxtail, Giant [16, 18]: 10
Plant response rating, Foxtail, Giant [16, 19]: 25

FC(F)Oc1cccc(Oc2ncc(Cl)cn2)c1-c1cc(C(F)F)on1 [Compound 131]
Oilseed Rape plant response rating [1, 17]: 45
Plant response rating, Oilseed Rape [1, 18]: 80
Plant response rating, Oilseed Rape [1, 19]: 85
Plant response rating (scale 0 to 100), Oilseed Rape ([1]; Preemergence, 125 g ai/ha): 95
Plant response rating, Oilseed Rape [1, 21]: 10
Plant response rating, Oilseed Rape [1, 22]: 50
Plant response rating, Oilseed Rape [1, 23]: 85
Wheat plant response rating [2, 17]: 0
Plant response rating, Wheat [2, 18]: 0
Plant response rating, Wheat [2, 19]: 0
Plant response rating (scale 0 to 100), Wheat ([2]; Preemergence, 125 g ai/ha): 5
Plant response rating, Wheat [2, 21]: 0
Plant response rating, Wheat [2, 22]: 0
Plant response rating, Wheat [2, 23]: 0
Velvetleaf plant response rating [3, 17]: 65
Plant response rating, Velvetleaf [3, 18]: 80
Plant response rating, Velvetleaf [3, 19]: 85
Plant response rating (scale 0 to 100), Velvetleaf ([3]; Preemergence, 125 g ai/ha): 98
Plant response rating, Velvetleaf [3, 21]: 20
Plant response rating, Velvetleaf [3, 22]: 65
Plant response rating, Velvetleaf [3, 23]: 80
Nutsedge, Yellow plant response rating [4, 17]: 0
Plant response rating, Nutsedge, Yellow [4, 18]: 5
Plant response rating, Nutsedge, Yellow [4, 19]: 10
Plant response rating (scale 0 to 100), Nutsedge, Yellow ([4]; Preemergence, 125 g ai/ha): 70
Plant response rating, Nutsedge, Yellow [4, 21]: 0
Plant response rating, Nutsedge, Yellow [4, 22]: 5
Plant response rating, Nutsedge, Yellow [4, 23]: 5
Morningglory plant response rating [5, 17]: 75
Plant response rating, Morningglory [5, 18]: 75
Plant response rating, Morningglory [5, 19]: 95
Plant response rating (scale 0 to 100), Morningglory ([5]; Preemergence, 125 g ai/ha): 85
Plant response rating, Morningglory [5, 21]: 0
Plant response rating, Morningglory [5, 22]: 40
Plant response rating, Morningglory [5, 23]: 35
Ryegrass, Italian plant response rating [6, 17]: 5
Plant response rating, Ryegrass, Italian [6, 18]: 5
Plant response rating, Ryegrass, Italian [6, 19]: 25
Plant response rating (scale 0 to 100), Ryegrass, Italian ([6]; Preemergence, 125 g ai/ha): 90
Plant response rating, Ryegrass, Italian [6, 21]: 0
Plant response rating, Ryegrass, Italian [6, 22]: 20
Plant response rating, Ryegrass, Italian [6, 23]: 35
Blackgrass plant response rating [7, 20]: 5
Blackgrass plant response rating [7, 17]: 5
Plant response rating, Blackgrass [7, 18]: 5
Plant response rating, Blackgrass [7, 19]: 30
Plant response rating (scale 0 to 100), Blackgrass ([7]; Preemergence, 125 g ai/ha): 95
Plant response rating, Blackgrass [7, 21]: 5
Plant response rating, Blackgrass [7, 22]: 80
Plant response rating, Blackgrass [7, 23]: 90
Corn plant response rating (corn (Zea mays); [20]): 5
Corn plant response rating (corn (Zea mays); [17]): 5
Plant response rating, Corn (corn (Zea mays); [18]): 10
Plant response rating, Corn (corn (Zea mays); [19]): 25
Plant response rating (scale 0 to 100), Corn (corn (Zea mays); Preemergence, 125 g ai/ha): 65
Plant response rating, Corn (corn (Zea mays); [21]): 0
Plant response rating, Corn (corn (Zea mays); [22]): 10
Plant response rating, Corn (corn (Zea mays); [23]): 60
Pigweed plant response rating [8, 17]: 98
Plant response rating, Pigweed [8, 18]: 98
Plant response rating, Pigweed [8, 19]: 100
Plant response rating (scale 0 to 100), Pigweed ([8]; Preemergence, 125 g ai/ha): 100
Plant response rating, Pigweed [8, 21]: 100
Plant response rating, Pigweed [8, 22]: 100
Plant response rating, Pigweed [8, 23]: 100
Johnsongrass plant response rating [9, 17]: 5
Plant response rating, Johnsongrass [9, 18]: 25
Plant response rating, Johnsongrass [9, 19]: 45
Plant response rating (scale 0 to 100), Johnsongrass ([9]; Preemergence, 125 g ai/ha): 85
Plant response rating, Johnsongrass [9, 21]: 0
Plant response rating, Johnsongrass [9, 22]: 30
Plant response rating, Johnsongrass [9, 23]: 80
Lambsquarters plant response rating [10, 17]: 98
Plant response rating, Lambsquarters [10, 18]: 98
Plant response rating, Lambsquarters [10, 19]: 100
Plant response rating (scale 0 to 100), Lambsquarters ([10]; Preemergence, 125 g ai/ha): 98
Plant response rating, Lambsquarters [10, 21]: 75
Plant response rating, Lambsquarters [10, 22]: 80
Plant response rating, Lambsquarters [10, 23]: 85
Galium plant response rating [11, 17]: 85
Plant response rating, Galium [11, 18]: 95
Plant response rating, Galium [11, 19]: 95
Plant response rating (scale 0 to 100), Galium ([11]; Preemergence, 125 g ai/ha): 90
Plant response rating, Galium [11, 21]: 95
Plant response rating, Galium [11, 22]: 30
Plant response rating, Galium [11, 23]: 90
Waterhemp plant response rating [12, 17]: 90
Plant response rating, Waterhemp [12, 18]: 90
Plant response rating, Waterhemp [12, 19]: 98
Plant response rating (scale 0 to 100), Waterhemp ([12]; Preemergence, 125 g ai/ha): 100
Plant response rating, Waterhemp [12, 21]: 100
Plant response rating, Waterhemp [12, 22]: 100
Plant response rating, Waterhemp [12, 23]: 100
Soybean plant response rating (soybean (Glycine max); [17]): 15
Plant response rating, Soybean (soybean (Glycine max); [18]): 75
Plant response rating, Soybean (soybean (Glycine max); [19]): 65
Plant response rating (scale 0 to 100), Soybean (soybean (Glycine max); Preemergence, 125 g ai/ha): 85
Plant response rating, Soybean (soybean (Glycine max); [21]): 5
Plant response rating, Soybean (soybean (Glycine max); [22]): 10
Plant response rating, Soybean (soybean (Glycine max); [23]): 50
Ragweed plant response rating [13, 17]: 45
Plant response rating, Ragweed [13, 18]: 65
Plant response rating, Ragweed [13, 19]: 75
Plant response rating (scale 0 to 100), Ragweed ([13]; Preemergence, 125 g ai/ha): 25
Plant response rating, Ragweed [13, 21]: 0
Plant response rating, Ragweed [13, 22]: 0
Plant response rating, Ragweed [13, 23]: 0
Crabgrass, Large plant response rating [14, 20]: 5
Crabgrass, Large plant response rating [14, 17]: 5
Plant response rating, Crabgrass, Large [14, 18]: 10
Plant response rating, Crabgrass, Large [14, 19]: 20
Plant response rating (scale 0 to 100), Crabgrass, Large ([14]; Preemergence, 125 g ai/ha): 100
Plant response rating, Crabgrass, Large [14, 21]: 98
Plant response rating, Crabgrass, Large [14, 22]: 100
Plant response rating, Crabgrass, Large [14, 23]: 100
Barnyardgrass plant response rating [15, 20]: 10
Barnyardgrass plant response rating [15, 17]: 10
Plant response rating, Barnyardgrass [15, 18]: 10
Plant response rating, Barnyardgrass [15, 19]: 20
Plant response rating (scale 0 to 100), Barnyardgrass ([15]; Preemergence, 125 g ai/ha): 100
Plant response rating, Barnyardgrass [15, 21]: 30
Plant response rating, Barnyardgrass [15, 22]: 75
Plant response rating, Barnyardgrass [15, 23]: 85
Foxtail, Giant plant response rating [16, 20]: 10
Foxtail, Giant plant response rating [16, 17]: 10
Plant response rating, Foxtail, Giant [16, 18]: 15
Plant response rating, Foxtail, Giant [16, 19]: 15
Plant response rating (scale 0 to 100), Foxtail, Giant ([16]; Preemergence, 125 g ai/ha): 100
Plant response rating, Foxtail, Giant [16, 21]: 80
Plant response rating, Foxtail, Giant [16, 22]: 100
Plant response rating, Foxtail, Giant [16, 23]: 100
